# Source: patent US11884747B2, “Compstatin analogs with increased solubility and improved pharmacokinetic properties” (The Trustees of the University of Pennsylvania, priority 2018, dated 2024)
# Experiments:
# [1] = for pH of the peptide solution in PBS: at the stated concentration, indicator paper
# human C3b = target: T1, human C3b (Homo sapiens, UniProt P01024); test: SPR binding affinity and kinetic profile with immobilized C3b; details: for ka, association constant / kd, dissociation constant / Kd: 25 °C; for ka, association constant / kd, dissociation constant: 1:1 Langmuir model; for Kd: KD=kd/ka, read-out: KD, equilibrium dissociation constant
# T1 construct: purchased Complement Technology, Inc., Tyler, TX
# [2] = test system: classical pathway of complement; test: Classical pathway complement inhibition ELISA (C3b deposition) in normal human plasma; assay type: biochemical; details: human plasma diluted 1:40; mean of at least three experiments
# Protocol: For this purpose, microtiter wells (NUNC) were coated with 50 μl of 1% ovalbumin in PBS (pH 7.4) at ambient temperature for 2 h. The wells were blocked with 200 μl of 1% BSA in PBS for 1 h, then coated with 50 μl of 1:1000 α-ovalbumin polyclonal antibody in PBS for 1 h. Between each step, the plate was washed thrice with 200 μl of 0.05% Tween 20 in PBS (PBS-T); 30 μl of VBS (Veronal buffer 1×; 5 mM veronal, pH 7.4, containing 150 mM NaCl, 0.5 mM CaCl2 and 0.5 mM MgCl2) were placed in all but the first well of each row of the 96-well plate, and 5 μM peptide solutions in VBS were prepared. […] Human plasma diluted 1:40 in VBS was incubated for 15 min with peptide of 0.005 to 2.5 μM. After washing with PBS-T, 50 μl/well of 1:1000 goat a-human C3 HRP conjugated antibody in 1% BSA in PBS was added to the wells and incubated for 1 h at room temperature. Complement fixation indicating activation was detected by the addition of HRP substrate (0.05% ABTS and 0.1% of 30% aqueous H2O2 in 0.1 M sodium citrate, pH 4.2) and read at 405 nm. The absorbance data obtained at 405 nm were translated into % inhibition, considering 100% to be equal to complement activation in the absence of peptide. The percent inhibition was plotted against the logarithm of concentrations, and the resulting data set was fitted to the equation “log(inhibitor) vs. normalized response” using GraphPad Prism 5 (La Jolla, CA). IC50 values were obtained from the fitted parameters of the mean of at least three independent experiments. Cp40 was always used as the internal control.
# [3] = test system: complement classical pathway; test: Classical pathway activation (C3b deposition) ELISA in human plasma with or without rabbit vitreous; assay type: biochemical; details: in the absence of vitreous
# Protocol: An alternative explanation to the one presented above is that the vitreous contains additional unidentified factors that associate with the Cp40-KKK analog. To investigate whether an unidentified vitreous factor impacts the complement inhibitory activity of lysine containing compounds, complement activation assays were performed using vitreous samples. Briefly, human plasma was incubated with OVA-anti-OVA immune-complexes in the presence of serial dilutions of the Cp40-based analogs mixed with rabbit vitreous. Levels of classical pathway activation (C3b deposition) were determined by ELISA using a polyclonal anti-human C3 antibody conjugated with HRP (MP Biomedicals, Solon, OH) (FIG. 20).
# T1 sequence (P01024 23-667 limits assumed): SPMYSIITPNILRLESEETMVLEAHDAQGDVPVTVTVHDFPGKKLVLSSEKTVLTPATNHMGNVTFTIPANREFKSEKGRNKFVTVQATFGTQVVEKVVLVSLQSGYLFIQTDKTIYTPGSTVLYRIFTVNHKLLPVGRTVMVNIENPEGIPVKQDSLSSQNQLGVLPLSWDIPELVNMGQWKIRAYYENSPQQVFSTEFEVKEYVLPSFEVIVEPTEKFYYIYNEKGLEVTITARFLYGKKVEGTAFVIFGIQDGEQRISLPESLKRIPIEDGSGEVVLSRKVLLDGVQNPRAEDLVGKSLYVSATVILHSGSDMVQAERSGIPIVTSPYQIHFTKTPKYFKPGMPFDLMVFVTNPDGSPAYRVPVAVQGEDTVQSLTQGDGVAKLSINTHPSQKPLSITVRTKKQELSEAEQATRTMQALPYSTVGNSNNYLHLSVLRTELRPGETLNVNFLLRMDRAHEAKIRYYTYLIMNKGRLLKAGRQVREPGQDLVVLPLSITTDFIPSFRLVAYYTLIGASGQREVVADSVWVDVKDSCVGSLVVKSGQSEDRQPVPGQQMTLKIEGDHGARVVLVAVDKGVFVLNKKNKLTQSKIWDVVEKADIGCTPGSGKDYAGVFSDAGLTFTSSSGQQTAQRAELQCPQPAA
# T1 sequence (P01024 749-1663 partner limits assumed): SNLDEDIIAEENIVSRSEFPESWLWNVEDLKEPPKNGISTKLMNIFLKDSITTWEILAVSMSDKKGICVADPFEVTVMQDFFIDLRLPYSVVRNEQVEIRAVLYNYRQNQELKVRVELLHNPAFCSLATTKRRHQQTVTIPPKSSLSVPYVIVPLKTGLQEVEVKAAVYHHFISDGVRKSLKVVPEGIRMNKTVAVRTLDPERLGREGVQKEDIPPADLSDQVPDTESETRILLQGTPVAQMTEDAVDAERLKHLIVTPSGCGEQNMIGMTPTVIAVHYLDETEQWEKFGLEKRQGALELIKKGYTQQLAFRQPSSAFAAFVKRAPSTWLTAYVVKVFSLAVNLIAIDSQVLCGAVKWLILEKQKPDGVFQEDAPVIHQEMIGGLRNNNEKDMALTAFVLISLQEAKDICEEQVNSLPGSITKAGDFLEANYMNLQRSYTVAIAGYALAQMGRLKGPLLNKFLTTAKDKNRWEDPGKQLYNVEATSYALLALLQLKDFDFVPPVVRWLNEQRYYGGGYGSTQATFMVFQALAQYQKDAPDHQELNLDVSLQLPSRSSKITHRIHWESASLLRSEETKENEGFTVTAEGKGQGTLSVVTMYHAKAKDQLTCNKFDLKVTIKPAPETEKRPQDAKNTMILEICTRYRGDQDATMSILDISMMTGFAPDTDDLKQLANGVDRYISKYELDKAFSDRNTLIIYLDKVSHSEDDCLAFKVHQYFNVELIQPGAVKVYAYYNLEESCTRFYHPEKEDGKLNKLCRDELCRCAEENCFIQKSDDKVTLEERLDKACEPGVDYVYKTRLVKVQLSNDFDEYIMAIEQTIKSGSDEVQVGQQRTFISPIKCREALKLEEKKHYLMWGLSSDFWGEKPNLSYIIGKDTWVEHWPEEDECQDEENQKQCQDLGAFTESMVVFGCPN
SMILES,pH of the peptide solution in PBS [1],"Conc. (mg/ml), solubility in PBS ([1]; pH 7.4) [mg/mL]",drop in the binding affinity toward C3b vs Cp40 (human C3b) [fold],"ka, association constant (human C3b)","kd, dissociation constant (human C3b)",Kd (human C3b) [nM],IC50 [2] [nM],complement classical pathway inhibitory activity [3]
CC[C@H](C)[C@H](NC(=O)[C@@H](Cc1ccc(O)cc1)NC(=O)CCOCCOCCOCCOCCOCCOCCOCCOCCOCCOCCOCCOC)C(=O)N[C@H]1CSSC[C@@H](C(=O)N(C)[C@H](C(N)=O)[C@@H](C)CC)NC(=O)[C@H](CCCNC(=N)N)NC(=O)[C@H](Cc2c[nH]cn2)NC(=O)[C@H](C)NC(=O)CN(C)C(=O)[C@H](Cc2c[nH]c3ccccc23)NC(=O)[C@H](CC(=O)O)NC(=O)[C@H](CCC(N)=O)NC(=O)[C@H](Cc2cn(C)c3ccccc23)NC(=O)[C@H](C(C)C)NC1=O [mPEG(528)-Cp40],7-7.5,2.3,5,1.00 ± 0.27 10^6M^−1s^−1,2.45 ± 0.28 10^−3s^−1,2.58 ± 0.51,83.5 ± 8.1,
"CC[C@H](C)[C@H](NC(=O)[C@H](N)Cc1ccc(O)cc1)C(=O)N[C@H]1CSSC[C@@H](C(=O)N(C)[C@H](C(=O)N[C@@H](CCCCN)C(N)=O)[C@@H](C)CC)NC(=O)[C@H](CCCNC(=N)N)NC(=O)[C@H](Cc2c[nH]cn2)NC(=O)[C@H](C)NC(=O)CN(C)C(=O)[C@H](Cc2c[nH]c3ccccc23)NC(=O)[C@H](CC(=O)O)NC(=O)[C@H](CCC(N)=O)NC(=O)[C@H](Cc2cn(C)c3ccccc23)NC(=O)[C@H](C(C)C)NC1=O [Cp40-K, DTyr-Ile-[Cys-Val-Trp(Me)-Gln-Asp-Trp-Sar-Ala-His-Arg-Cys]-mlle-Lys—NH2]",7.5,,,,1.85 ± 0.50 10^−3s^−1,0.92 ± 0.2,95.6 ± 9.2,inhibitory activity in a dose-dependent manner
CC[C@H](C)[C@H](NC(=O)[C@@H](Cc1ccc(O)cc1)NC(=O)CCOCCOCCOCCOCCOCCOCCOCCOCCOCCOCCOCCOCCOCCOCCOCCOCCOCCOCCOCCOCCOCCOCCOCCOC)C(=O)N[C@H]1CSSC[C@@H](C(=O)N(C)[C@H](C(N)=O)[C@@H](C)CC)NC(=O)[C@H](CCCNC(=N)N)NC(=O)[C@H](Cc2c[nH]cn2)NC(=O)[C@H](C)NC(=O)CN(C)C(=O)[C@H](Cc2c[nH]c3ccccc23)NC(=O)[C@H](CC(=O)O)NC(=O)[C@H](CCC(N)=O)NC(=O)[C@H](Cc2cn(C)c3ccccc23)NC(=O)[C@H](C(C)C)NC1=O [mPEG(1056)-Cp40],7-7.5,,,0.72 ± 0.25 10^6M^−1s^−1,2.80 ± 0.95 10^−3s^−1,3.93 ± 0.39,52 ± 2.7,
